Experimental data reported in US20050089583A1, “Novel herbal composition for the treatment of gastric ulcer” (priority 2003, published 2005).

What was measured:
[1] = tested on: aspirin induced gastric ulcer; experiment: Aspirin induced gastric ulcer model; format: in vivo, rats
Description: (§1) The following arbitrary scoring system was used to grade the severity and intensity of the lesions. • 1. Shedding of epithelium=10 • 2. Petechial and frank hemorrhages=20 • 3. One or two ulcers=30 • 4. More than two ulcers=40 • 5. Perforated ulcers=50 The presence of any of these lesions was considered as a positive ulcerogenic response which has been shown as percentage of rats showing gastric lesions.
(§2) The severity of ulcers is expressed in terms of ulcer index, which is the mean score of gastric lesions of all the rats in a group which is defined as: • Ulcer Index (U. I.)=Us+Up×10^−1 • Where Us=Mean severity of ulcer score and Up-Percentage of animals with Ulcer incidences.
(§3) The percentage protection is calculated as follows: • Percentage protection ═(C-T/C)×100. • Wherein • C=Number of animals showing ulcer response in control group and • T=Number of animals showing ulcer response in test group.
Method: Gastric ulceration was induced by aspirin according to the method of Djahanguiri (1969). Aspirin (150 mg/Kg.) was administered per orally as a suspension in gum-acacia and the animal was sacrificed 5 hr. after the aspirin treatment and the ulcer index with protection index were calculated.

Histamine induced ulcer = Histamine induced ulcer model; format: in vivo, guinea pig; conditions: HF2 50 mg/Kg p.o., Omeprazole 10 mg/kg p.o.
Method: Method: Animals were fasted for 24 hours with access to water. The drug was given orally 1 hour prior to the histamine administration. Histamine was administered in a dose of 0.25 mg/Kg, i.m. at 30 minutes interval-for 7 times and it induced 100% duodenal ulceration in guinea pig (According to the method of Watt and Eagleton 1964)^4. The animals were sacrificed after half an hour of last injection under ether anesthesia. The stomach along with duodenum was removed washed thoroughly and examined for the lesions and ulcer index with protection index was calculated. The effect of the herbal composition “HF2” and the standard drug “Omeprazole” against Histamine induced ulcer model is given in Table 4.

[2] = tested on: Cold Restraint Ulcers (CRU); experiment: Cold restraint ulcer (CRU) model; format: in vivo, rats
Method: Method: Adult rats of either sex, weighing 150-175 Gms were fasted for 24 hours with free access to water. The test drugs were administered 45 minutes before immobilizing the animals. The rats were immobilized in the restraint cage at 4° C. in BOD incubator for 2 hrs and were sacrificed immediately after the restraint period. (According to the method of Senay and Levine 1967). The abdomen was cut opened; stomach was taken out and incised along the greater curvature to observe the gastric lesions with the help of Magnascope (5× magnification).
as §1, §2, §3

[3] = HF 2 100 mg/Kg p.o., Omeprazole 10 mg/Kg p.o.

COc1ccc2[nH]c([S+]([O-])Cc3ncc(C)c(OC)c3C)nc2c1 (stereo not shown) [Omeprazole]
protection against aspirin induced ulcer model [1]: 39.41%
Ulcer severity (type of lesions) score 20 (No. of rats showing lesions/No. of rats tested) ([1]; Aspirin 150 mg/Kg p.o., HF 2 100 mg/Kg p.o., Omeprazole 10 mg/Kg p.o.): 2/6
Ulcer severity (type of lesions) score 10 (No. of rats showing lesions/No. of rats tested) ([1]; Aspirin 150 mg/Kg p.o., HF 2 100 mg/Kg p.o., Omeprazole 10 mg/Kg p.o., 5 hr): 2/6
Mean severity of ulcer score [1, 3]: 10.0
Percentage of ulcer incidence [1, 3]: 66.7%
Protection index [1, 3]: 39.41
Ulcer index [1, 3]: 7.67
Percentage of ulcer incidence (Histamine induced ulcer): 33.3%
Ulcer severity (type of lesions) score 20 (No. Guinea pig showing lesions/No. of Guinea pig tested) (Histamine induced ulcer; Histamine 0.25 mg/Kg i.m. × 7): 1/3
protection against cold restraint ulcer model [2]: 54.03%
Percentage of ulcer incidence ([2]; HF2 50 mg/Kg p.o., Omeprazole 10 mg/Kg p.o.): 50%
Ulcer severity (type of lesions) score 10 (No. of rats showing lesions/No. of rats tested) ([2]; score 10 = shedding of epithelium, HF2 50 mg/Kg p.o., Omeprazole 10 mg/Kg p.o., 4° C., 2 hrs restraint): 3/10
Ulcer severity (type of lesions) score 20 (No. of rats showing lesions/No. of rats tested) ([2]; score 20 = petechial and frank hemorrhages, HF2 50 mg/Kg p.o., Omeprazole 10 mg/Kg p.o.): 2/10
